Test results taken from ChEMBL document CHEMBL5338758, “Design, Synthesis, and Bioevaluation of Novel MyD88 Inhibitor c17 against Acute Lung Injury Derived from the Virtual Screen” (J Med Chem, 2023).
Calls of active or inactive are those of the source. No cut-off for these calls is given here.

Key:
J774.A1 [1] = assay: Anti-inflammatory activity in mouse J774.A1 cells assessed as inhibition of LPS-induced IL-6 production at 10 uM pre-stimulated with LPS for 24 hrs followed by compound addition and measured after 0.5 hrs by ELISA analysis relative to control; format: functional
J774.A1 [2] = assay: Anti-inflammatory activity in mouse J774.A1 cells assessed as inhibition of LPS-induced TNF-alpha production at 10 uM pre-stimulated with LPS for 24 hrs followed by compound addition and measured after 0.5 hrs by ELISA analysis relative to control; format: functional
[3] = target: T1, Myeloid differentiation primary response protein MyD88 (Homo sapiens, UniProt Q99836); assay: Binding affinity to human MyD88 TIR domain assessed as equilibrium dissociation constant by SPR analysis
T1 sequence (Q99836 whole entry, the tested form may be a part): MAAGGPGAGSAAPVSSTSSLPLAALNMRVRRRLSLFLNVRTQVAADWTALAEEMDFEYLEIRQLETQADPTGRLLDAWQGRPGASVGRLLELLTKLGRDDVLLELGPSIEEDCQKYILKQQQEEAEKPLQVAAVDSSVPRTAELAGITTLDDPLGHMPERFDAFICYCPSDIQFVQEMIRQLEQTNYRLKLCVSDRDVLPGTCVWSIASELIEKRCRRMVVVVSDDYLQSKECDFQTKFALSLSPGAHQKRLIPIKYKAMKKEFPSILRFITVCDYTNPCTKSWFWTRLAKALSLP

J774.A1 [4] = assay: Anti-inflammatory activity in mouse J774.A1 cells assessed as suppression of LPS-induced IL-6 production by ELISA analysis; format: functional, cell-based
J774.A1 [5] = assay: Anti-inflammatory activity in mouse J774.A1 cells assessed as inhibition of LPS-induced IL-6 production pre-stimulated with LPS for 24 hrs followed by compound addition and measured after 0.5 hrs by ELISA analysis; format: functional, cell-based
J774.A1 [6] = assay: Anti-inflammatory activity in mouse J774.A1 cells assessed as inhibition of LPS-induced TNF-alpha production pre-stimulated with LPS for 24 hrs followed by compound addition and measured after 0.5 hrs by ELISA analysis; format: functional, cell-based
J774.A1 [7] = assay: Cytotoxicity against mouse J774.A1 cells assessed as reduction in cell survival incubated for 24 hrs by MTT assay; format: toxicity, cell-based; settings: j774.a1, 24 h
[8] = target: T1, Myeloid differentiation primary response protein MyD88; assay: Binding affinity to human MyD88 TIR domain by SPR analysis; settings: dose 1.19-5.94 10^-5M

SMILES | inhibition at 10 µM (J774.A1 [1]) [%] | inhibition at 10 µM (J774.A1 [2]) [%] | also measured
O=C(Nc1cccc2ccccc12)c1ccc(N2CCN(Cc3cccc([N+](=O)[O-])c3)CC2)c([N+](=O)[O-])c1 | 62.2 | 39.8 | –
COc1ccc(NS(=O)(=O)c2ccc(N3CCN(CCO)CC3)c([N+](=O)[O-])c2)cn1 | 22.2 | – | inhibition (J774.A1 [2]): inactive
O=[N+]([O-])c1cccc(CN2CCN(c3ccc(S(=O)(=O)Nc4ccccc4)cc3[N+](=O)[O-])CC2)c1 | 71.2 | 33.9 | –
O=c1[nH]c(-c2ccc(CN3CCN(CCO)CC3)cc2)nc2ccccc12 | 57.1 | – | inhibition (J774.A1 [2]): inactive
O=c1nc(-c2ccc(CN3CCN(CCOCCO)CC3)cc2)cc(-c2ccc(Br)cc2)[nH]1 | 58.4 | 22.6 | –
O=c1cc(-c2ccncc2)nc(-c2ccc(CN3CCN(CCO)CC3)cc2)[nH]1 | 33.5 | 8.59 | Kd [3]: 795 µM; Activity (J774.A1 [4]): Active
O=c1nc(-c2ccc(CN3CCN(CCO)CC3)cc2)cc(-c2ccc(Br)cc2)[nH]1 | 7.52 | 29.6 | –
COc1ccc(NS(=O)(=O)c2ccc(N3CCN(c4cnc(NC(C)=O)s4)CC3)c([N+](=O)[O-])c2)cn1 | 39.9 | 12.2 | –
COc1ccc(-c2cc(-c3ccc(CN4CCN(CCO)CC4)cc3)nc(=O)[nH]2)cc1 | 8.43 | 33.7 | –
COCCN1CCN(c2ccc(S(=O)(=O)Nc3ccccc3)cc2[N+](=O)[O-])CC1 | 60.3 | 16.9 | –
O=c1nc(-c2ccc(CN3CCN(c4ccc([N+](=O)[O-])cc4)CC3)cc2)cc(-c2ccccc2)[nH]1 | 15.7 | 50.6 | –
O=C(NCc1ccccn1)c1ccc(N2CCN(Cc3cccc([N+](=O)[O-])c3)CC2)c([N+](=O)[O-])c1 | 33.1 | 27 | –
COCCN1CCN(c2ccc(S(=O)(=O)NCc3ccccn3)cc2[N+](=O)[O-])CC1 | 50.4 | 11.8 | –
O=c1nc(-c2ccc(CN3CCN(CCO)CC3)cc2)cc(-c2ccccc2)[nH]1 | 18.2 | 17.9 | –
CC(=O)N1CCN(Cc2ccc(-c3cc(-c4ccc(Br)cc4)[nH]c(=O)n3)cc2)CC1 | – | – | inhibition (J774.A1 [1]): inactive; inhibition (J774.A1 [2]): inactive
COCCN1CCN(Cc2ccc(-c3nc4ccccc4c(=O)[nH]3)cc2)CC1 | 34 | 22.6 | –
O=C(Nc1ccccc1)c1ccc(N2CCN(c3ccc([N+](=O)[O-])cc3)CC2)c([N+](=O)[O-])c1 | 14.9 | – | inhibition (J774.A1 [2]): inactive
CC(=O)N1CCN(Cc2ccc3c(=O)[nH]c(-c4ccccc4)nc3c2)CC1 | 26 | – | inhibition (J774.A1 [2]): inactive
O=c1[nH]c(-c2ccc(CN3CCN(c4ccc([N+](=O)[O-])cc4)CC3)cc2)nc2ccccc12 | 44.1 | – | inhibition (J774.A1 [2]): inactive
O=C(Nc1ccccc1)c1ccc(N2CCN(Cc3ccc([N+](=O)[O-])cc3)CC2)c([N+](=O)[O-])c1 | – | – | inhibition (J774.A1 [1]): inactive; inhibition (J774.A1 [2]): inactive
O=C(Nc1ccccc1)c1ccc(N2CCN(CCO)CC2)c([N+](=O)[O-])c1 | 47.5 | 1.01 | –
COc1ccc(-c2cc(-c3ccc(CN4CCN(c5ccc([N+](=O)[O-])cc5)CC4)cc3)nc(=O)[nH]2)cc1 | 35 | 38.7 | –
O=C(Nc1ccccc1)c1ccc(N2CCN(Cc3cccc([N+](=O)[O-])c3)CC2)c([N+](=O)[O-])c1 | – | – | inhibition (J774.A1 [1]): inactive; inhibition (J774.A1 [2]): inactive

SMILES | inhibition at 10 µM (J774.A1 [1]) [%] | inhibition at 10 µM (J774.A1 [2]) [%] | also measured
O=c1[nH]c(-c2ccccc2)nc2cc(CN3CCN(CCOCCO)CC3)ccc12 | 24.1 | – | inhibition (J774.A1 [2]): inactive
O=c1nc(-c2ccc(CN3CCN(CCOCCO)CC3)cc2)cc(-c2ccccc2)[nH]1 | 19.3 | 14.2 | –
O=C(NCc1ccccn1)c1ccc(N2CCN(Cc3ccccc3)CC2)c([N+](=O)[O-])c1 | 36.4 | 35.4 | –
COCCN1CCN(Cc2ccc3c(=O)[nH]c(-c4ccccc4)nc3c2)CC1 | 29.2 | – | inhibition (J774.A1 [2]): inactive
O=c1nc(-c2ccc(CNc3nc4ccccc4s3)cc2)cc(-c2ccccc2)[nH]1 | 79.5 | 53.3 | IC50 (J774.A1 [5]): 0.53 µM; IC50 (J774.A1 [6]): 17.7 µM; Activity (J774.A1 [7]): Non-Toxic; Activity [8]: inactive
COCCN1CCN(c2ccc(C(=O)Nc3ccccc3)cc2[N+](=O)[O-])CC1 | 47.8 | 26.9 | –
COc1ccc(NS(=O)(=O)c2ccc(N3CCN(Cc4ccccc4)CC3)c([N+](=O)[O-])c2)cn1 | 55.1 | 27.7 | –
CC(=O)N1CCN(Cc2ccc(-c3nc4ccccc4c(=O)[nH]3)cc2)CC1 | 53.7 | 11.9 | –
COc1ccc(NS(=O)(=O)c2ccc(N3CCN(c4ncccn4)CC3)c([N+](=O)[O-])c2)cn1 | 45 | 22.3 | –
COc1ccc(-c2cc(-c3ccc(CN4CCN(CCOCCO)CC4)cc3)nc(=O)[nH]2)cc1 | 17.1 | 27.2 | –
COc1ccc(CN2CCN(c3ccc(S(=O)(=O)Nc4ccc(OC)nc4)cc3[N+](=O)[O-])CC2)cc1 | 63.5 | 27.9 | –
COCCN1CCN(Cc2ccc(-c3cc(-c4ccc(Br)cc4)[nH]c(=O)n3)cc2)CC1 | 46.1 | 41.1 | –
O=C(NCc1ccccn1)c1ccc(N2CCN(Cc3ccc([N+](=O)[O-])cc3)CC2)c([N+](=O)[O-])c1 | 57.6 | 37 | –
O=c1[nH]c(-c2ccccc2)nc2cc(CN3CCN(CCO)CC3)ccc12 | 46 | – | inhibition (J774.A1 [2]): inactive
O=c1[nH]c(-c2ccccc2)nc2cc(CN3CCN(c4ccc([N+](=O)[O-])cc4)CC3)ccc12 | – | – | inhibition (J774.A1 [1]): inactive; inhibition (J774.A1 [2]): inactive
CCCCCNCc1ccc(-c2cc(-c3ccc(OC)cc3)[nH]c(=O)n2)cc1 | 35.3 | 24.1 | –
COCCN1CCN(c2ccc(S(=O)(=O)Nc3ccc(OC)nc3)cc2[N+](=O)[O-])CC1 | 47.3 | 1.16 | –
CCCCCNCc1ccc(-c2cc(-c3ccccc3)[nH]c(=O)n2)cc1 | 17.9 | 16.1 | –
COCCN1CCN(Cc2ccc(-c3cc(-c4ccc(OC)cc4)[nH]c(=O)n3)cc2)CC1 | 14.8 | 40.8 | –
O=[N+]([O-])c1cc(S(=O)(=O)Nc2ccccc2)ccc1N1CCN(CCO)CC1 | 55.6 | 7.89 | –
O=[N+]([O-])c1cc(S(=O)(=O)NCc2ccccn2)ccc1N1CCN(CCO)CC1 | 37.8 | 6.63 | –
COCCN1CCN(Cc2ccc(-c3cc(-c4ccccc4)[nH]c(=O)n3)cc2)CC1 | – | 25.6 | inhibition (J774.A1 [1]): inactive
COc1ccc(NS(=O)(=O)c2ccc(N3CCN(Cc4ccc([N+](=O)[O-])cc4)CC3)c([N+](=O)[O-])c2)cn1 | 71.8 | 37.9 | IC50 (J774.A1 [5]): 3.4 µM; IC50 (J774.A1 [6]): 14.1 µM
